Values quoted from earlier work in patent US20050159809A1, “Implantable medical devices for treating or preventing restenosis” (Medtronic Vascular, Inc., priority 2004, published 2005).

Tested on: balloon-injury induced neointimal thickening and macrophage accumulation
Conditions: four weeks after balloon de-endothelialization

## CC(C)(Sc1cc(C(C)(C)C)c(O)c(C(C)(C)C)c1)Sc1cc(C(C)(C)C)c(O)c(C(C)(C)C)c1 [probucol, {[bis(3,5-di-tert-butyl-4-hydroxyphenyl)thio]propane}]
High cholesterol rabbit food plus 1% probucol vs cholesterol-only diet, P<0.05
  absolute neointima thickness: reduced
High cholesterol rabbit food plus 1% probucol vs high cholesterol feed without probucol, P<0.001
  macrophage content in the neointima: lower
